Measurements reported in ChEMBL document CHEMBL1158408, “Large-scale application of high-throughput molecular mechanics with Poisson-Boltzmann surface area for routine physics-based scoring of protein-ligand complexes” (J Med Chem, 2009).

What follows are compounds tested against T1, Tyrosine-protein phosphatase non-receptor type 1 (Homo sapiens, UniProt P18031).
T1 sequence (P18031 whole entry): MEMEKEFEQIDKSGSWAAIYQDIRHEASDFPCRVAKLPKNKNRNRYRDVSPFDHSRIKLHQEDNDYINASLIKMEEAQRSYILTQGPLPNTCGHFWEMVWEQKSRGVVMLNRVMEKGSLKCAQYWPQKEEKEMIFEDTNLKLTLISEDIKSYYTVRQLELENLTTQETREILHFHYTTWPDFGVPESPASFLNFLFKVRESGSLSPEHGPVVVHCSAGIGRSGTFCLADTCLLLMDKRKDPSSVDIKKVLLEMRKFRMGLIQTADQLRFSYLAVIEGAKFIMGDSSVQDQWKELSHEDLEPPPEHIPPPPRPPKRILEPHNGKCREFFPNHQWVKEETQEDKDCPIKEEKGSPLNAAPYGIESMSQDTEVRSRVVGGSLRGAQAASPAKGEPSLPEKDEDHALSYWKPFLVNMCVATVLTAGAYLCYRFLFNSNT

Compared with `COC(=O)c1c(O)cccc1OCCCCCN1CCc2ccc(N(C(=O)C(=O)O)c3ccccc3C(=O)O)cc2C1`, `C=CCOC(=O)N[C@@H](Cc1ccc(N(C(=O)C(=O)O)c2ccccc2C(=O)O)cc1)C(=O)NCCCCOc1cccc(O)c1C(=O)OC` is 79-fold lower in Ki: 10 µM for the first, 0.126 µM for the second. The second binds more tightly here.

Going from `O=C(O)C(=O)N(c1ccccc1C(=O)O)c1c(O)ccc2ccccc12` to `COC(=O)c1cc2ccccc2c(N(C(=O)C(=O)O)c2ccccc2C(=O)O)c1O`, the Ki falls from 7.94 µM to 3.98 µM (2-fold).

Going from `COC(=O)c1c(O)cccc1OCCn1ccc2ccc(-c3cc(C(=O)O)no3)cc21` to `COC(=O)c1c(O)cccc1OCCCC(=O)Nc1cccc(-c2cc(C(=O)O)no2)c1`, the Ki rises from 50.1 µM to 251 µM (5-fold). The first binds more tightly here.

Compared with `CCCCCN1C(=O)C(=O)N(C(=O)NC(C)C)[C@H](Cc2ccc(Nc3ccccc3C(=O)O)c(CCC(N)=O)c2)C1=O`, `CCCCCNC(=O)[C@H](Cc1ccc(N(C(=O)C(=O)O)c2ccccc2C(=O)O)c(/C=C/C(N)=O)c1)NC(=O)OC(C)(C)C` is 1.6-fold lower in Ki: 2 µM for the first, 1.26 µM for the second.

First: COC(=O)c1c(O)cccc1OC[C@H]1C[C@H]1c1cccc(-c2cc(C(=O)O)no2)c1
Second: COC(=O)c1c(O)cccc1OC/C=C/c1ccc2c(c1)-c1onc(C(=O)O)c1CC2
The Ki of the first is 2-fold higher: 25.1 µM for the first, 12.6 µM for the second. The second binds more tightly here.

First: CCc1cc(CC(NC(C)=O)C(=O)NCCCCC(=O)N[C@@H](CSCc2ccccc2)C(=O)O)ccc1N(C(=O)C(=O)O)c1ccccc1C(=O)O (stereo partly specified)
Second: CCCC[C@H](NC(=O)CCCCNC(=O)C(Cc1ccc(N(C(=O)C(=O)O)c2ccccc2C(=O)O)c(CC)c1)NC(C)=O)C(=O)O (stereo partly specified)
The Ki of the first is 6.3-fold higher: 0.631 µM for the first, 0.1 µM for the second. The second binds more tightly here.

First: O=C(O)c1nc2ccccc2s1
Second: CCc1ccccc1N(C(=O)C(=O)O)c1ccccc1C(=O)O
The Ki of the first is 25-fold higher: 1000 µM for the first, 39.8 µM for the second.

Going from `CN(C(=O)[C@@H](Cc1ccc(N(C(=O)C(=O)O)c2ccccc2C(=O)O)cc1)NC(=O)OC(C)(C)C)C1CCC(C(=O)O)CC1` (stereo partly specified) to `COC(=O)N[C@H](Cc1ccc(N(C(=O)C(=O)O)c2ccccc2C(=O)O)cc1)C(=O)NCCCCOc1cc(OC(C)C)cc(O)c1C(=O)OC`, the Ki falls from 10 µM to 3.98 µM (2.5-fold). The second binds more tightly here.

Going from `O=C(O)C(=O)N(c1ccccc1C(=O)O)c1ccccc1N1CCCC(CO)C1` (stereo unspecified) to `O=C(O)C(=O)N(c1ccccc1C(=O)O)c1cc([N+](=O)[O-])cc2ccccc12`, the Ki falls from 20 µM to 10 µM (2-fold). The second binds more tightly here.

Going from `COC(=O)N[C@H](Cc1ccc(N(C(=O)C(=O)O)c2ccccc2C(=O)O)cc1)C(=O)NCCCCOc1cc(-c2ccccc2)cc(O)c1C(=O)OC` to `C=CCOC(=O)N[C@@H](Cc1ccc(N(C(=O)C(=O)O)c2ccccc2C(=O)O)cc1)C(=O)NCCOCCOc1cccc(O)c1C(=O)OC`, the Ki falls from 1 µM to 0.398 µM (2.5-fold). The second binds more tightly here.

Going from `CCc1cc(CC(NC(C)=O)C(=O)NCCCCC(=O)NC2CCCCC2)ccc1N(C(=O)C(=O)O)c1ccccc1C(=O)O` (stereo unspecified) to `CCc1cc(CC(NC(C)=O)C(=O)NCCCCC(=O)N[C@@H](CCS(C)(=O)=O)C(=O)O)ccc1N(C(=O)C(=O)O)c1ccccc1C(=O)O` (stereo partly specified), the Ki falls from 3.98 µM to 0.398 µM (10-fold). The second binds more tightly here.

Compared with `CC(=O)N1CCC(C(=O)Nc2cccc(-c3cc(C(=O)O)no3)c2)CC1`, `CC(C)(C)OC(=O)Nc1cccc(-c2cc(C(=O)O)no2)c1` is 2.5-fold higher in Ki: 79.4 µM for the first, 200 µM for the second.

Going from `CCc1cc(CC(NC(C)=O)C(=O)NCCCCC(=O)NC(Cc2nccs2)C(=O)O)ccc1N(C(=O)C(=O)O)c1ccccc1C(=O)O` (stereo unspecified) to `CCc1cc(CC(NC(C)=O)C(=O)NCCCCC(=O)N[C@@H](CCSC)C(=O)O)ccc1N(C(=O)C(=O)O)c1cc(Cl)ccc1C(=O)O` (stereo partly specified), the Ki falls from 0.631 µM to 0.0631 µM (10-fold).

Going from `CC(=O)NC(Cc1ccc(N(C(=O)C(=O)O)c2ccccc2C(=O)O)c2ccccc12)C(=O)NCCCN1CCCC1=O` (stereo unspecified) to `CC(=O)NC(Cc1ccc(N(C(=O)C(=O)O)c2ccccc2C(=O)O)c2ccccc12)C(=O)NCCO` (stereo unspecified), the Ki rises from 7.94 µM to 12.6 µM (1.6-fold). The first binds more tightly here.

Compared with `CC[C@H](C)[C@H](NC(=O)CCCCNC(=O)C(Cc1ccc(N(C(=O)C(=O)O)c2ccccc2C(=O)O)c2ccccc12)NC(C)=O)C(=O)O` (stereo partly specified), `CCCC[C@H](NC(=O)C(Cc1ccc(N(C(=O)C(=O)O)c2ccccc2C(=O)O)c2ccccc12)NC(=O)OC)C(=O)OC` (stereo partly specified) is 2-fold higher in Ki: 0.2 µM for the first, 0.398 µM for the second. The first binds more tightly here.

Compound `CC(=O)NC(Cc1ccc(N(C(=O)C(=O)O)c2ccccc2C(=O)O)c2ccccc12)C(=O)NCCCCCOc1cc2ccccc2cc1C(=O)O` (single isomer, unassigned) has a Ki of 0.02 µM.
